# Patent publication US20110319484A1, “NEUROPROTECTIVE COMPOUNDS” (Parque Tecnologico de Ciencias de la Salud, priority 2009, published 2011)
# What was measured:
# [1] = system: human neuroblastoma SK-N-MC cells; experiment: Protection against neuronal death induced by apoptosis (camptothecin), WST-1 test; type: cell-based; details: camptothecin 20 nM, 22 h, at 10 μg/ml, protection at 4, 10 and 40 μg/ml
# Procedure: To that end, an assay was performed on human neuroblastoma SK-N-MC cells in culture from the ATCC (HTB-10); in all cases strict rules of sterility were followed and the manipulation was performed in class II biological safety cabinets following European standard EN 12469. The cells were maintained in MEM culture medium supplemented with 1 mM sodium pyruvate, 2 mM L-glutamine, 0.1 mM non-essential amino acids, 0.05 mg/ml gentamicin and 10% fetal bovine serum.
# The inhibition caused by the compound (1S,3R,7S,8S,8aR)-1,2,3,7,8,8a-hexahydro-3,7-dimethyl-8-[2-[(2R,4R)-tetrahydro-4-hydroxy-6-oxo-2H-pyran-2-yl]ethyl-1-naphthalenyl 2-methylpropanoate (NST0004) of cell death caused by treatment with camptothecin (Campt), which inhibits the topoisomerase I enzyme by preventing duplication of the DNA, which triggers apoptic cell death, was analyzed. […]
# The cells were incubated (at 37° C. and 5% CO2) with these treatments for 22 h, after which time the WST-1 reagent (Roche) was added. […] The metabolically active (live) cells reduce tetrazolium salt to formazan by means of the succinate-tetrazolium reductase system (of the mitochondrial respiratory chain) and the formazan which is formed can be detected colorimetrically since it has an absorbance of 440 nm. The reading was taken in a plate reader at 440 nm 2 hours after adding the reagent. […]
# mice = experiment: Antiepileptic effect against kainate administered to mice; type: in vivo, mice (FVB/NHan); details: KA 25 mg/kg i.p.
# Text: It is known that the administration of an excitotoxic substance to animals induces, in some cases, epileptic seizures and convulsions. As a result the inventors decided to investigate if the neuroprotective effect of (1S,3R,7S,8S,8aR)-1,2,3,7,8,8a-hexahydro-3,7-dimethyl-8-[2-[(2R,4R)-tetrahydro-4-hydroxy-6-oxo-2H-pyran-2-yl]ethyl-1-naphthalenyl 2,2-dimethylpropanoate (NST0005) was accompanied by an antiepileptic effect caused by an excitotoxic substance.
# All the animals included during the experimental process were 12-week old males of the FVB/NHan strain. The experiments were carried out strictly following the Guidance on the Operation of Animals (Scientific Procedures, Act. 1986). The animals had their respective quarantine period and were treated with maximum precaution to minimize possible contaminations for inoculations and handling.
# The animals were inoculated intraperitoneally with 25 mg/kg of kainate (KA) dissolved in PBS. Nine animals were pretreated at 24 and 0.5 hours before the inoculation with KA by means of intraperitoneal injection with PBS (PBS+KA administration regimen) and 9 were pretreated at 24 and 0.5 hours before the inoculation with KA by means of intraperitoneal injection with NST0005 at a dose of 50 mg/kg (NST0005+KA administration regimen). After the inoculation, the animals were individually housed in trays to monitor them. The maximum epilepsy level of the animals according to Racine's scale was recorded during the observation every ten minutes and for at least 120 minutes post-inoculation (m.p.i.).
# Comparative studies of the epileptogenic phenomena between the treatment with PBS (PBS+KA) and with NST0005 (NST0005+KA) were subsequently conducted, the data of which are shown in Table 1.
# [2] = NST0005 50 mg/kg i.p. at 24 and 0.5 h before KA, n=9
SMILES,maximum reduction of the percentage of cell death relating to death caused by Camptothecin [1] [%],Animals with convulsions (%) (mice; [2]),Animals with status epilepticus (%) (mice; [2]),Mortality (%) (mice; [2]),"epilepsy level in Racine's scale reached (mice; NST0005 50 mg/kg i.p. pretreatment, at least 120 min observation)","latency (time of onset of the first convulsions) (mice; NST0005 50 mg/kg i.p. pretreatment, mean±SEM) [min]"
CC(C)C(=O)O[C@H]1C[C@@H](C)C=C2C=C[C@H](C)[C@H](CC[C@@H]3C[C@@H](O)CC(=O)O3)[C@H]21 [NST0004],43,,,,,
C[C@H]1C=C2C=C[C@H](C)[C@H](CC[C@@H]3C[C@@H](O)CC(=O)O3)[C@H]2[C@@H](OC(=O)C(C)(C)C)C1 [NST0005],,33.3,22.2,11.1,< 3,108.9 ± 5.9
